In US10660877B2 (BRISTOL-MYERS SQUIBB COMPANY, priority 2016, dated 2020):

Assays:
human TLR7 = human TLR7 (Homo sapiens (Human), UniProt Q9NYK1); assay: TLR7 inhibition reporter assay (HEK-Blue cells, SEAP reporter, gardiquimod stimulation); type: cell-based; conditions: HEK-Blue cells overexpressing human TLR7, gardiquimod 7.5 μM
human TLR9 = human TLR9 (Homo sapiens (Human), UniProt Q9NR96); assay: TLR9 inhibition reporter assay (HEK-Blue cells, SEAP reporter, ODN2006 stimulation); conditions: read-out: TLR9 IC50, HEK-Blue cells overexpressing human TLR9, ODN2006 5 nM;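 note: compounds tested over 0.05 nM to 50 µM, 22 h incubation, inhibition taken as SEAP signal drop from agonist plus DMSO wells toward a known inhibitor control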
human TLR8 = human TLR8 (Homo sapiens (Human), UniProt Q9NR97); assay: TLR8 inhibition reporter assay (HEK-Blue cells, SEAP reporter, R848 stimulation); conditions: read-out: TLR8 IC50, HEK-Blue cells overexpressing human TLR8, R848 15.9 μM;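 note: compounds tested from 0.05 nM to 50 µM, 22 h at 37 °C, SEAP measured with HEK-Blue Detection, inhibition relative to agonist plus DMSO versus a known inhibitor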
Sequence of human TLR8 (Q9NR97 27-1041): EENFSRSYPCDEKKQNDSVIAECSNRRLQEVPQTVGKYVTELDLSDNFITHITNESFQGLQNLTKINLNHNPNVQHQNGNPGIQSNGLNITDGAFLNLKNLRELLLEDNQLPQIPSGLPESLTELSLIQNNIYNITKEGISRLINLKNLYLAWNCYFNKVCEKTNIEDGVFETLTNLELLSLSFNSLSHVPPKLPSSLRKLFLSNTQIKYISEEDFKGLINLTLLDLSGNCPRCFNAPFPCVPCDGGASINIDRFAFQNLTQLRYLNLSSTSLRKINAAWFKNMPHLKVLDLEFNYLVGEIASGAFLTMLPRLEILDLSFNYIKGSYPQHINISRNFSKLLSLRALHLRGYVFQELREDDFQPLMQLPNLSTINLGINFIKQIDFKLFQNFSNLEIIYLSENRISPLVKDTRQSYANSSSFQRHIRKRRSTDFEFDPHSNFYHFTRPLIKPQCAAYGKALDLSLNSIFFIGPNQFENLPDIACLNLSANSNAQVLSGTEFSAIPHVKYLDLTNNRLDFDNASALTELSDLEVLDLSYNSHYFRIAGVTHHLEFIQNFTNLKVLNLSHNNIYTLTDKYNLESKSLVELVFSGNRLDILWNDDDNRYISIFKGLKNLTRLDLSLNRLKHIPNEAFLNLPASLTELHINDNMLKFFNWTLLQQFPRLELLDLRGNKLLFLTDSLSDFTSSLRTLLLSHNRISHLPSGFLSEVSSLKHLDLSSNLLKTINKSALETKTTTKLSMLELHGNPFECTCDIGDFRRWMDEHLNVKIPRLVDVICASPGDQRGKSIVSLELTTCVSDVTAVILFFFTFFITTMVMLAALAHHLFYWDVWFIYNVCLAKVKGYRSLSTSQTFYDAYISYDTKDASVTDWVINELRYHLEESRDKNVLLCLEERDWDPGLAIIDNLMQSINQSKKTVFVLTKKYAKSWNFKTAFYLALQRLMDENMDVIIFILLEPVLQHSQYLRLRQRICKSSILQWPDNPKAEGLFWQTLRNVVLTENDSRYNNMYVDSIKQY

Sequence of human TLR7 (Q9NYK1 27-1049): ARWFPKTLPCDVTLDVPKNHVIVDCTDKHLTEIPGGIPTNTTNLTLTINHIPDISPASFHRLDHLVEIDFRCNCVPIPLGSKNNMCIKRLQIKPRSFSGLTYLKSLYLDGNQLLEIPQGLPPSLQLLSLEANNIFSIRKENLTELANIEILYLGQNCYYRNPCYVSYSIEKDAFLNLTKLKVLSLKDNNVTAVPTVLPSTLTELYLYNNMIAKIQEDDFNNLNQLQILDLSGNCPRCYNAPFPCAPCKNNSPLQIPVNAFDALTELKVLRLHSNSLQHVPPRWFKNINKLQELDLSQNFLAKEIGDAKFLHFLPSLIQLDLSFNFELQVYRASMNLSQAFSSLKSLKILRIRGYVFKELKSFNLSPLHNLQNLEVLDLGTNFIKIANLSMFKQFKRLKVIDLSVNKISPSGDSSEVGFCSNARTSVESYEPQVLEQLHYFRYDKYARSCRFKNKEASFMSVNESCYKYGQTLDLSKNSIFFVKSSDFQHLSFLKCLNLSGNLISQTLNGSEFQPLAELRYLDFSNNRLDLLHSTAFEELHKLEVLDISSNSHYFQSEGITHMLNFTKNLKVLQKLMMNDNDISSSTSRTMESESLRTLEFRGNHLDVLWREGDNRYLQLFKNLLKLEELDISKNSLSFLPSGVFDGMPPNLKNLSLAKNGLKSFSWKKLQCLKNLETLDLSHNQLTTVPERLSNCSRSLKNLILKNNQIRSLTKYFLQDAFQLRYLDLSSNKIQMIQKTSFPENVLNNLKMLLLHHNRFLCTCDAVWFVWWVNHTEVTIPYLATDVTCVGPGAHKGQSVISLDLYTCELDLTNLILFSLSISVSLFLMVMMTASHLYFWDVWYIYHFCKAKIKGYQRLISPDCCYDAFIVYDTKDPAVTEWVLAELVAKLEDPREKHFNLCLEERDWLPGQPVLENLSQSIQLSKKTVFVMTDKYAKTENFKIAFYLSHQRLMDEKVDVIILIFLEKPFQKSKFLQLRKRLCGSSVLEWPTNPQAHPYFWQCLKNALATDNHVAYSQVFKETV
Sequence of human TLR9 (Q9NR96 26-1032): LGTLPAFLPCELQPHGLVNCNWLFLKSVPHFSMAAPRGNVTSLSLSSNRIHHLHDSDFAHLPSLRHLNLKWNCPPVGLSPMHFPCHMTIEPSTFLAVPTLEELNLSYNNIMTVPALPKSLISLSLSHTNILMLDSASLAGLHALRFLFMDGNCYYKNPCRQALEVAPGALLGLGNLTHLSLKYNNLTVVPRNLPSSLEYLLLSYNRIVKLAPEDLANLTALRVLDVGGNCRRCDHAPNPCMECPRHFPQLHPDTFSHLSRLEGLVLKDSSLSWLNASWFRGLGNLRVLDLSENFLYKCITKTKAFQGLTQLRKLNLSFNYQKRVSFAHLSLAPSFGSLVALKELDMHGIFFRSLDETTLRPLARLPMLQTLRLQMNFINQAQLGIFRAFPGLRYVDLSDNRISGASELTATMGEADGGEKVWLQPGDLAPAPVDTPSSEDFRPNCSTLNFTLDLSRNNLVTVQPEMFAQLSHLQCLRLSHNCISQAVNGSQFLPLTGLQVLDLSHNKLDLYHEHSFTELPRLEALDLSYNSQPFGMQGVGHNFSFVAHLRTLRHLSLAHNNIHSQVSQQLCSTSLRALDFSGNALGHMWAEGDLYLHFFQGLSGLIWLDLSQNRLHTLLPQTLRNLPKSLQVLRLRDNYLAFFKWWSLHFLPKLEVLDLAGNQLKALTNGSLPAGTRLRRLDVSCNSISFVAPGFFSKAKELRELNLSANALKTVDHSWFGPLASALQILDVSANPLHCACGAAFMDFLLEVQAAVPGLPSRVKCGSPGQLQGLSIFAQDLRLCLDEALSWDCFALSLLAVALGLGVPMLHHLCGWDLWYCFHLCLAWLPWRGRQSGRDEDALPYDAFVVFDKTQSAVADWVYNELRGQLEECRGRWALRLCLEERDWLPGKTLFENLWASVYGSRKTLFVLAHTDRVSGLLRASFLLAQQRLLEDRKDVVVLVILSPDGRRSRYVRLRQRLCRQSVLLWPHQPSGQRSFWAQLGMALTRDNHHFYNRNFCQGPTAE

Row | SMILES | IC50 (human TLR7) [nM] | IC50 (human TLR9) [nM] | IC50 (human TLR8) [nM]
1 | CCc1c(-c2ccnc(C)c2)[nH]c2ccc(C3CCN(C(=O)C4CCN(C)CC4)CC3)cc12 [Example 593, (4-(3-ethyl-2-(2-methylpyridin-4-yl)-1H-indol-5-yl)piperidin-1-yl)(1-methylpiperidin-4-yl)methanone] | 43 | 513 | 17.4
2 | CCc1c(-c2ccnc(C)c2)[nH]c2ccc(C3CCN(C(=O)CCN(C)C)CC3)cc12 [Example 594, 3-(dimethylamino)-1-(4-(3-ethyl-2-(2-methylpyridin-4-yl)-1H-indol-5-yl)piperidin-1-yl)propan-1-one] | 30.2 | 610 | 39.4
3 | CCc1c(-c2ccnc(C)c2)[nH]c2ccc(C3CCN(C(=O)C4CCNC4)CC3)cc12 (stereo not drawn) [Example 595, (4-(3-ethyl-2-(2-methylpyridin-4-yl)-1H-indol-5-yl)piperidin-1-yl)(pyrrolidin-3-yl)methanone] | 84.7 | 348 | 32.7
4 | Cc1cc(-c2[nH]c3ccc(C4CCN(C(=O)C5(C)COC5)CC4)cc3c2C(C)C)ccn1 [Example 596, (4-(3-isopropyl-2-(2-methylpyridin-4-yl)-1H-indol-5-yl)piperidin-1-yl)(3-methyloxetan-3-yl)methanone] | 33.3 | 44500 | 102
5 | Cc1cc(-c2[nH]c3ccc(C4CCN(C(=O)C5CCOCC5)CC4)cc3c2C(C)C)ccn1 [Example 597, (4-(3-isopropyl-2-(2-methylpyridin-4-yl)-1H-indol-5-yl)piperidin-1-yl)(tetrahydro-2H-pyran-4-yl)methanone] | 45.6 | 26900 | 117
6 | Cc1cc(-c2[nH]c3ccc(C4CCN(C(=O)C5CCOC(C(C)C)C5)CC4)cc3c2C(C)C)ccn1 (stereo not drawn) [Example 598, (4-(3-isopropyl-2-(2-methylpyridin-4-yl)-1H-indol-5-yl)piperidin-1-yl)(2-isopropyltetrahydro-2H-pyran-4-yl)methanone] | 99.6 | 9940 | 374
7 | Cc1cc(-c2[nH]c3ccc(C4CCN(C(=O)C5CCOC5)CC4)cc3c2C(C)C)ccn1 (stereo not drawn) [Example 599, (4-(3-isopropyl-2-(2-methylpyridin-4-yl)-1H-indol-5-yl)piperidin-1-yl)(tetrahydrofuran-3-yl)methanone] | 18.5 | 43800 | 178
8 | Cc1cc(-c2[nH]c3ccc(C4CCN(C(=O)CC(F)(F)F)CC4)cc3c2C(C)C)ccn1 [Example 600, 3,3,3-trifluoro-1-(4-(3-isopropyl-2-(2-methylpyridin-4-yl)-1H-indol-5-yl)piperidin-1-yl)propan-1-one] | 120 | > 50000 | 269
9 | Cc1cc(-c2[nH]c3ccc(C4CCN(C(=O)C(C)(C)C)CC4)cc3c2C(C)C)ccn1 [Example 601, 1-(4-(3-isopropyl-2-(2-methylpyridin-4-yl)-1H-indol-5-yl)piperidin-1-yl)-2,2-dimethylpropan-1-one] | 99.2 | 34100 | 385
10 | Cc1cc(-c2[nH]c3ccc(C4CCN(C(=O)C(C)C)CC4)cc3c2C(C)C)ccn1 [Example 602, 1-(4-(3-isopropyl-2-(2-methylpyridin-4-yl)-1H-indol-5-yl)piperidin-1-yl)-2-methylpropan-1-one] | 24.7 | 32000 | 158
11 | CCC(=O)N1CCC(c2ccc3[nH]c(-c4ccnc(C)c4)c(C(C)C)c3c2)CC1 [Example 603, 1-(4-(3-isopropyl-2-(2-methylpyridin-4-yl)-1H-indol-5-yl)piperidin-1-yl)propan-1-one] | 49 | 37300 | 228
12 | Cc1cc(-c2[nH]c3ccc(C4CCN(C(=O)c5ccon5)CC4)cc3c2C(C)C)ccn1 [Example 604, (4-(3-isopropyl-2-(2-methylpyridin-4-yl)-1H-indol-5-yl)piperidin-1-yl)(isoxazol-3-yl)methanone] | 24.9 | 23000 | 190
13 | Cc1cc(-c2[nH]c3ccc(C4CCN(C(=O)C5(C(F)(F)F)CC5)CC4)cc3c2C(C)C)ccn1 [Example 605, (4-(3-isopropyl-2-(2-methylpyridin-4-yl)-1H-indol-5-yl)piperidin-1-yl)(1-(trifluoromethyl)cyclopropyl)methanone] | 77.7 | 14300 | 124
14 | Cc1cc(-c2[nH]c3ccc(C4CCN(C(=O)C5CC5)CC4)cc3c2C(C)C)ccn1 [Example 606, cyclopropyl(4-(3-isopropyl-2-(2-methylpyridin-4-yl)-1H-indol-5-yl)piperidin-1-yl)methanone] | 56.5 | 40900 | 186
15 | Cc1cc(-c2[nH]c3ccc(C4CCN(C(=O)C5CCN(C)C(=O)C5)CC4)cc3c2C(C)C)ccn1 (stereo not drawn) [Example 607, 4-(4-(3-isopropyl-2-(2-methylpyridin-4-yl)-1H-indol-5-yl)piperidine-1-carbonyl)-1-methylpiperidin-2-one] | 94 | > 50000 | 186

The remaining lines, values ahead:

Row | IC50 (human TLR7) [nM] | IC50 (human TLR9) [nM] | IC50 (human TLR8) [nM] | SMILES
16 | 51.4 | 1850 | 184 | Cc1cc(-c2[nH]c3ccc(C4CCN(C(=O)CS(C)(=O)=O)CC4)cc3c2C(C)C)ccn1 [Example 608, 1-(4-(3-isopropyl-2-(2-methylpyridin-4-yl)-1H-indol-5-yl)piperidin-1-yl)-2-(methylsulfonyl)ethan-1-one]
17 | 38.2 | 21500 | 214 | Cc1cc(-c2[nH]c3ccc(C4CCN(C(=O)c5cscn5)CC4)cc3c2C(C)C)ccn1 [Example 609, (4-(3-isopropyl-2-(2-methylpyridin-4-yl)-1H-indol-5-yl)piperidin-1-yl)(thiazol-4-yl)methanone]
18 | 48.6 | 47300 | 163 | Cc1cc(-c2[nH]c3ccc(C4CCN(C(=O)C5(C)CC5)CC4)cc3c2C(C)C)ccn1 [Example 610, (4-(3-isopropyl-2-(2-methylpyridin-4-yl)-1H-indol-5-yl)piperidin-1-yl)(1-methylcyclopropyl)methanone]
19 | 19.7 | 9450 | 108 | Cc1cc(-c2[nH]c3ccc(C4CCN(C(=O)C5(C#N)CC5)CC4)cc3c2C(C)C)ccn1 [Example 611, 1-(4-(3-isopropyl-2-(2-methylpyridin-4-yl)-1H-indol-5-yl)piperidine-1-carbonyl)cyclopropane-1-carbonitrile]
20 | 73 | 16700 | 162 | Cc1cc(-c2[nH]c3ccc(C4CCN(C(=O)C5CNC(=O)C5)CC4)cc3c2C(C)C)ccn1 (stereo not drawn) [Example 612, 4-(4-(3-isopropyl-2-(2-methylpyridin-4-yl)-1H-indol-5-yl)piperidine-1-carbonyl)pyrrolidin-2-one]
21 | 55.1 | 7630 | 206 | Cc1cc(-c2[nH]c3ccc(C4CCN(C(=O)C5CC(=O)N(C(C)(C)C)C5)CC4)cc3c2C(C)C)ccn1 (stereo not drawn) [Example 613, 1-(tert-butyl)-4-(4-(3-isopropyl-2-(2-methylpyridin-4-yl)-1H-indol-5-yl)piperidine-1-carbonyl)pyrrolidin-2-one]
22 | 119 | 17500 | 469 | Cc1cc(-c2[nH]c3ccc(C4CCN(C(=O)C(F)(F)F)CC4)cc3c2C(C)C)ccn1 [Example 614, 2,2,2-trifluoro-1-(4-(3-isopropyl-2-(2-methylpyridin-4-yl)-1H-indol-5-yl)piperidin-1-yl)ethan-1-one]
